From US4873237A, “2,3-dihydro- thiazolo- and thiazino- benzimidazoles as atni-hyper secretion agents” (John Wyeth & Brother Limited, priority 1983, dated 1989)

Key:
Male rats = assay: stress-induced erosion test of Senay and Levine (anti-ulcer activity); assay type: in vivo; details: dosed orally, cold restraint 3 hours
Method: Anti-ulcer activity was determined by the stressinduced erosion test of Senay and Levine, Proc. Soc. Exp. Biol. Med., 124, 1221-3 (1967). The procedure used was as follows.
Male rats, weighing between 80 and 120 gms. were fasted overnight with water ad lib. The rats were then divided into groups of six and dosed orally with the test drug in the form of a solution or with the vehicle alone, 0.5% carboxymethylcellulose, in a volume of 10ml/kg.
After 30 minutes the rats were inserted into aluminium restraining tubes measuring 15/8 inches in diameter by 5 inches and placed in the cold (4±1° C.) for 3 hours. Immediately after cold exposure the rats were killed with intracranial alcohol and their stomachs excised and opened along the greater curvature. Each stomach was washed gently free of contents with warm tap water and pinned out on a board. The condition of the gastric mucosa was then scored from 0 to 6 on the following scale:
The maximum possible score for each animal was 6 and for the group 36. Decrease in ulcer formation was calculated as a percentage of the control score, i.e. [formula] The statistical significance of the effect is assessed by Student's t-test.

H^+ /K^+ ATPase = target: T1, H^+ /K^+ ATPase (Oryctolagus cuniculus, UniProt P27112); assay: 14C-aminopyrine uptake in rabbit isolated gastric glands stimulated by DBcAMP or high K+; assay type: cell-based; details: at 10^-4 M, read-out: % Inhibition to stimulation by K^+
T1 construct: Rabbit gastric glands are isolated from gastric mucosa from the corpus region of the stomach; from tissue; host or cells: rabbit isolated gastric glands (gastric mucosa, corpus region of the stomach)
T1 sequence (P27112 2-1035 limits assumed): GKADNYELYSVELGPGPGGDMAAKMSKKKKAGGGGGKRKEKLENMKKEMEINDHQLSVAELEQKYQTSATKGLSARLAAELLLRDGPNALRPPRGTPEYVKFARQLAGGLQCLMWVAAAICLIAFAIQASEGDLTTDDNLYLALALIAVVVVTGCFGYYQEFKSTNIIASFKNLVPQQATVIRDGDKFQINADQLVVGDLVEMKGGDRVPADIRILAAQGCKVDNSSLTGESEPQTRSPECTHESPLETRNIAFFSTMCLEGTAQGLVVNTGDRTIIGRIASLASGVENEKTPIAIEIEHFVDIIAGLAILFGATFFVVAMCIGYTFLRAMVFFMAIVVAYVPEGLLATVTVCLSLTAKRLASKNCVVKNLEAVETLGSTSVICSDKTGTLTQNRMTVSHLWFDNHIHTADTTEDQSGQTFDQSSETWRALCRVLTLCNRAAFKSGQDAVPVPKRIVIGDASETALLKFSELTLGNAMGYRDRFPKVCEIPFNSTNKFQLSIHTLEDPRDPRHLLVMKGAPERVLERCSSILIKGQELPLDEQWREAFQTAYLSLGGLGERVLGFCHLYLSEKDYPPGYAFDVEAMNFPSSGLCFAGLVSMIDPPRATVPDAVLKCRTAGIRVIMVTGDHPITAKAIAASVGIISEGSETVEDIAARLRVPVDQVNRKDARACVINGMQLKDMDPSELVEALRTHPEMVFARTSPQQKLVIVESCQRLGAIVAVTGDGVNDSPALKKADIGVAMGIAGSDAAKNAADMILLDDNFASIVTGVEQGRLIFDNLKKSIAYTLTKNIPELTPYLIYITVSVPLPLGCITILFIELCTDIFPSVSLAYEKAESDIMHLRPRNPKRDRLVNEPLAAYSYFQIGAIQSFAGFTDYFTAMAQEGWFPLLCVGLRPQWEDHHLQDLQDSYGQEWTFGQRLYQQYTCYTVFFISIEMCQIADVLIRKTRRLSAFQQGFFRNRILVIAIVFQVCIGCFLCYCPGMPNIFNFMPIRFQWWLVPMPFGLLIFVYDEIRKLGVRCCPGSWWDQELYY
T1 sequence (P18597 whole entry partner): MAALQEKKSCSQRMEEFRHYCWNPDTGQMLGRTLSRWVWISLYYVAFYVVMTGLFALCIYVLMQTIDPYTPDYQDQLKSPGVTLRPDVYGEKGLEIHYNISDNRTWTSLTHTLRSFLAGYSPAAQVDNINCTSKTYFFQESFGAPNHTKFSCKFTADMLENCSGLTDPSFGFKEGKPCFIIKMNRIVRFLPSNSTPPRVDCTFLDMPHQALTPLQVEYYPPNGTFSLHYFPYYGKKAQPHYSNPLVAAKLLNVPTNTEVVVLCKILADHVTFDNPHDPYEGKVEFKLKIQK
Method: Compounds of formula I were also tested for anti-secretory activity by their ability to inhibit the highly specific proton transporting enzyme H^+ /K^+ ATPase.
Potential H^+ /K^+ ATPase inhibitors were evaluated by a technique involving the measurement of aminopyrine accumulation in rabbit isolated gastric glands. Aminopyrine accumulates in acid-secreting cells; therefore, uptake of aminopyrine is increased by secretagogues and an inhibitor of acid secretion will reduce the response to one or more secretagogues depending upon its site of action. Compounds which reduce the response to dibutyryl cyclic adenosine monophosphate (DBcAMP) stimulation are assumed to have an intracellular site of action; and those which reduce the response to both DBcAMP and high potassium ion concentration (K^+) are thought to have an intracellular site of action at the secretory surface of the parietal cell, involving the highly specific proton-transporting enzyme, H^+ /K^+ ATPase.
The following test procedure is used: […]
Compounds are tested at a concentration of 10^-4 M, initially, and in some cases at lower concentrations, for their ability to inhibit ^14 C-aminopyrine uptake in gastric glands, stimulated by DBcAMP and high K^+ respectively. Results are expressed as the % inhibition of the maximum response to the secretagogue induced by the test compound. […]

Q: Which “Inhibition (decrease in ulcer formation as percentage of control score)” value (Male rats; dose 30 mg/kg) does the source give for `c1ccc(C2Cn3c(nc4ccccc43)S2)nc1` (centres unmarked) [Example 1, 2,3-Dihydro-2-(2-pyridyl)thiazolo[3,2-a]benzimidazole] here?
A: Its value is 86%.

Q: What about the “Inhibition (decrease in ulcer formation as percentage of control score)” value (Male rats; dose 100 mg/kg) of the same molecule?
A: Its value is 75%.

Q: Which “Inhibition (decrease in ulcer formation as percentage of control score)” value (Male rats; dose 100 mg/kg) does the source give for `c1ccc(C2Cn3c(nc4ccccc43)S2)cc1` (centres unmarked) [Example 3, 2,3-Dihydro-2-phenylthiazolo[3,2-a]benzimidazole] here?
A: Its value is 74%.

Q: With `Clc1cc2nc3n(c2cc1Cl)CC(c1ccccn1)S3` (centres unmarked) [Example 8, 6,7-Dichloro-2,3-dihydro-2-(2-pyridyl)thiazolo[3,2-a]benzimidazole] as the molecule, how does the inhibition at 100 µM (H^+ /K^+ ATPase) read?
A: Its inhibition at 100 µM is 74%.

Q: Which “Inhibition (decrease in ulcer formation as percentage of control score)” value (Male rats; dose 100 mg/kg) does the source give for `Cc1cc2nc3n(c2cc1C)CC(c1ccccn1)S3` (centres unmarked) [Example 9, 2,3-Dihydro-6,7-dimethyl-2-(2-pyridyl)thiazolo[3,2-a]benzimidazole] here?
A: The value was 82%.
